Measurements published in article PMC10487733, “Synthesis, Conformational Analysis and Antitumor Activity of the Naturally Occurring Antimicrobial Medium-Length Peptaibol Pentadecaibin and Spin-Labeled Analogs Thereof” (International Journal of Molecular Sciences, 2023).
Where a SMILES comes first, the peptide text is derived from it. [ ]: non-standard residue; d: D form. TOAC = CC1(C)CC(N)(C(=O)O)CC(C)(C)N1[O]; Phe(ol) = N[C@H](CO)Cc1ccccc1; Aib = CC(C)(N)C(=O)O

Experiments:
[1] = Circular dichroism in SDS micelles (helix aggregation index); type: physicochemical; details: CD in 100 mM aqueous SDS micelles, 25 °C, 1 mm cell, 16 scans; ratio is ≈ 0.9 in CH3OH
Method: We performed a CD analysis of the peptides in methanol and in the presence of micelles of sodium dodecyl sulfate (SDS) 100 mM in water.
CD spectra of α-helical peptides feature two negative and one positive maxima centered at about 208, 222 and 195 nm, respectively. Aib-containing peptides are known to fold in 3_10-helices, which is common for peptaibols. In this case, the first negative maximum shifts from 208 to about 205 nm.
CD measurements were acquired on a Jasco J-1500 spectrophotometer (Tokyo, Japan), using a 1 mm pathlength quartz cell (Hellma Analytics, Munich, Germany). Methanol or a solution of sodium dodecyl sulfate (SDS) 100 mM in milliQ water was used as solvent. An amount of 1 mM of solutions of the three peptides in each of the two solvents of choice was prepared. Then, 300 µL of each solution was inserted in the 1 mm quartz cell and the cell put into the cell holder of the Jasco J-1500 instrument. The measurements were performed at 25 °C, acquiring 16 scans. The temperature was kept constant by means of an external Peltier thermostat (ThermoHaake C25P, Karlbruhe, Germany).

[2] = system: MDA-MB-231 (human triple-negative breast cancer); details: MDA-MB-231 cells, 24 h exposure to 0–20 µM peptaibol, MTS read-out at 490 nm; value [95% CI]; at least three independent experiments in triplicate
[3] = system: A549 (human lung adenocarcinoma); details: A549 cells, 24 h exposure to 0–20 µM peptaibol, MTS read-out at 490 nm; value [95% CI]; at least three independent experiments in triplicate
[4] = system: MUG-Mel2 (human melanoma); details: MUG-Mel2 cells, 24 h exposure to 0–20 µM peptaibol, MTS read-out at 490 nm; CI not given; at least three independent experiments in triplicate
[5] = system: SK-OV-3 (human ovarian adenocarcinoma); details: SK-OV-3 cells, 24 h exposure to 0–20 µM peptaibol, MTS read-out at 490 nm; value [95% CI]; at least three independent experiments in triplicate
[6] = Peptide-induced carboxyfluorescein leakage from PC/Ch liposomes; details: PC/Ch 7:3 SUVs 0.06 mM, HEPES pH 7.4, 20 min incubation, fluorescence 488/520 nm, relative to Triton X-100; qualitative; more efficient than trichogin GA IV
Method: (§1) The assay was carried out on model liposomes (small unilamellar vesicles, SUV) of two different compositions, namely phosphatidylcholine/cholesterol (PC/Ch) 7:3 and phosphatidylethanolamine/phosphatidylglycerol (PE/PG) 7:3. Using fluorescence measurements, the ability of the peptides to induce the release of the carboxyfluorescein (CF) dye previously included within SUVs was evaluated.
(§2) The chosen lipid compositions result in different net surface charges on the SUVs. […] On the other hand, when the peptide perturbs the artificial membrane, it causes the leakage of the CF, and therefore leads to an increase in fluorescence intensity. The maximum value of fluorescence intensity, corresponding to the complete destruction of the vesicles via the surfactant Triton X-100, was used as a reference. […]
(§3) Phosphatidylcholine (PC), phosphatidylglycerol (PG), phosphatidylethanolamine (PE) and cholesterol (Ch) were purchased from Avanti Polar Lipids (Alabaster, AL, USA). […] To evaluate the peptide ability to modulate membrane permeability, CF leakage from the liposomes was measured via fluorescence spectroscopy on a Perkin Elmer (Waltham, MA, USA) MPF-66 spectrofluorimeter. The procedure was as follows: 2.5 mL of each SUV at 0.06 mM concentration was inserted in twelve disposable fluorescence cuvettes and fluorescence was recorded (λexc = 488 nm) for all of them at 520 nm (F0). […]

[7] = Peptide-induced carboxyfluorescein leakage from PE/PG liposomes; details: PE/PG 7:3 SUVs 0.06 mM, HEPES pH 7.4, 20 min incubation, fluorescence 488/520 nm, relative to Triton X-100; qualitative; more efficient than trichogin GA IV, particularly on these SUVs
Method: as §1, §2, §3

Compound | ratio R = [θ]222/[θ]208 (index of aggregation between helices) [1] | IC50 [2] [µM] | IC50 [3] [µM] | IC50 [4] [µM] | IC50 [5] [µM] | membrane activity (CF leakage from SUVs) [6] | membrane activity (CF leakage from SUVs) [7]
CC(=O)NC(C)(C)C(=O)NCC(=O)N[C@@H](C)C(=O)N[C@@H](CC(C)C)C(=O)NC(C)(C)C(=O)N[C@@H](CCC(N)=O)C(=O)NC(C)(C)C(=O)N[C@H](C(=O)NC(C)(C)C(=O)N[C@@H](C)C(=O)NC1(C(=O)NC(C)(C)C(=O)NC(C)(C)C(=O)N[C@@H](CCC(N)=O)C(=O)N[C@H](CO)Cc2ccccc2)CC(C)(C)N([O])C(C)(C)C1)C(C)C [To11-VX, [Toac^11]-pentadecaibin] (Ac-[Aib]GAL[Aib]Q[Aib]V[Aib]A[TOAC][Aib][Aib]Q[Phe(ol)]) | greater than 1 | 8.04 | 9.7 | 13.6 | – | – | –
CC(=O)NC1(C(=O)NCC(=O)N[C@@H](C)C(=O)N[C@@H](CC(C)C)C(=O)NC(C)(C)C(=O)N[C@@H](CCC(N)=O)C(=O)NC(C)(C)C(=O)N[C@H](C(=O)NC(C)(C)C(=O)N[C@@H](C)C(=O)NC(C)(C)C(=O)NC(C)(C)C(=O)NC(C)(C)C(=O)N[C@@H](CCC(N)=O)C(=O)N[C@H](CO)Cc2ccccc2)C(C)C)CC(C)(C)N([O])C(C)(C)C1 [To1-VX, [Toac^1]-pentadecaibin] (Ac-[TOAC]GAL[Aib]Q[Aib]V[Aib]A[Aib][Aib][Aib]Q[Phe(ol)]) | greater than 1 | 7.98 | 11.1 | 10.1 | 9.56 | – | –
CC(=O)NC(C)(C)C(=O)NCC(=O)N[C@@H](C)C(=O)N[C@@H](CC(C)C)C(=O)NC(C)(C)C(=O)N[C@@H](CCC(N)=O)C(=O)NC(C)(C)C(=O)N[C@H](C(=O)NC(C)(C)C(=O)N[C@@H](C)C(=O)NC(C)(C)C(=O)NC(C)(C)C(=O)NC(C)(C)C(=O)N[C@@H](CCC(N)=O)C(=O)N[C@H](CO)Cc1ccccc1)C(C)C [VX, pentadecaibin] (Ac-[Aib]GAL[Aib]Q[Aib]V[Aib]A[Aib][Aib][Aib]Q[Phe(ol)]) | greater than 1 | 8.79 | 9.1 | 14.2 | 11.1 | equally membrane active | equally membrane active
